Patent US10421774B2 (priority 2016, dated 2019)
Read-outs that look alike come from different tables or passages of the source.

How the values were obtained:
Assay in all cases: microbe, parasite or virus in culture
Assay type in all cases: cell-based, HIV-1
[1] = tested on: NLRepRlucP373S recombinant wild type (WT) virus
Outline: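 Multiple-cycle assay: luciferase-normalized NL4-3-derived NLRepRlucP373S (Renilla luciferase in place of nef) infects MT-2 cells, 10,000 cells/well, with 3-fold compound dilutions at 1% DMSO, 4-5 days, 37 °C. EC50 and EC90 fitted by median effect equation against Renilla luminescence, with residual signal under 3 μM NFV as background.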

[2] = tested on: A364V site directed mutant virus; details: for EC50: Human immunodeficiency virus 1, MT2, read-out: A364V EC50
Outline: (§1)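 Virus yield quantified by Renilla luciferase after 4–5 day culture at 37°C of MT-2 cells (10,000/well) with 3-fold serially diluted compound at 1% final DMSO. Reporter viruses were NL4-3 P373S derivatives bearing Gag A364V or V370A/ΔT371, inputs matched on luciferase endpoint.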

[3] = tested on: gag V370A/ΔT371 virus; details: for EC50: Human immunodeficiency virus 1, MT2, read-out: V370A/ΔT371 EC50
Outline: as §1

[4] = tested on: T332S/V362I/Pr R41G virus; details: for EC50: Human immunodeficiency virus 1, MT2, read-out: T332S/V362I/pr41G EC50
Outline: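 Multiple-cycle susceptibility: MT-2 cells, 10,000 per well, exposed to 3-fold compound dilutions at 1% DMSO after infection with luciferase-normalized inoculum. Virus: NL4-3-derived Renilla reporter (Gag P373S) with Gag T332S/V362I and protease R41G. Readout Renilla luciferase after 4–5 days, 37 °C.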

[5] = Human immunodeficiency virus 1, MT2, read-out: WT EC50

Row | SMILES | EC50 [1, 5] | EC50 [2] | EC50 [3] | EC50 [4] | EC50 ([1]; Human immunodeficiency virus 1, read-out: WT EC50) | EC90 ([2]; Human immunodeficiency virus 1, read-out: A364V EC90) | EC90 ([3]; Human immunodeficiency virus 1, read-out: V370A/ΔT371 EC90) | EC90 ([4]; Human immunodeficiency virus 1, read-out: T332S/V362I/prR41G EC90)
1 | C=C(C)[C@@H]1CC[C@]2(NCC[C@]3(O)CC[C@H](S(C)(=O)=O)CC3)CC[C@]3(C)[C@H](CC[C@@H]4[C@@]5(C)CC=C(C6=CCC(COc7ccccn7)(C(=O)O)CC6)C(C)(C)[C@@H]5CC[C@]43C)[C@@H]12 (stereo partly drawn) [Example A2, 4-((1R,3aS,5aR,5bR,7aR,11aS,11bR,13aR,13bR)-3a-((2-((1r,4S)-1-hydroxy-4-(methylsulfonyl)cyclohexyl)ethyl)amino)-5a,5b,8,8,11a-pentamethyl-1-(prop-1-en-2-yl)-2,3,3a,4,5,5a,5b,6,7,7a,8,11,11a,11 b,12,13,13a,13b-octadecahydro-1H-cyclopenta[a]chrysen-9-yl)-1-((pyridin-2-yloxy)methyl)cyclohex-3-enecarboxylic acid] | 1 nM | 14 nM | 8 nM | 8 nM |  |  |  | 
2 | C=C(C)[C@@H]1CC[C@]2(NCC[C@]3(O)CC[C@@H](S(C)(=O)=O)CC3)CC[C@]3(C)[C@H](CC[C@@H]4[C@@]5(C)CC=C(C6=CC[C@@](COc7ncccc7C#N)(C(=O)O)CC6)C(C)(C)[C@@H]5CC[C@]43C)[C@@H]12 [Example A3, (S)-1-(((3-cyanopyridin-2-yl)oxy)methyl)-4-((1R,3aS,5aR,5bR,7aR,11aS,11bR,13aR,13bR)-3a-((2-((1s,4R)-1-hydroxy-4-(methylsulfonyl)cyclohexyl)ethyl)amino)-5a,5b,8,8,11a-pentamethyl-1-(prop-1-en-2-yl)-2,3,3a,4,5,5a,5b,6,7,7a,8,11,11a,11b,12,13,13a,13b-octadecahydro-1H-cyclopenta[a]chrysen-9-yl)cyclohex-3-enecarboxylic acid] | 4 nM | 11 nM | 5 nM | 5 nM | 4 nM | 166 nM | 15 nM | 17 nM
3 | C=C(C)[C@@H]1CC[C@]2(NCC[C@]3(O)CC[C@H](S(C)(=O)=O)CC3)CC[C@]3(C)[C@H](CC[C@@H]4[C@@]5(C)CC=C(C6=CC[C@@](COc7ncccc7C#N)(C(=O)O)CC6)C(C)(C)[C@@H]5CC[C@]43C)[C@@H]12 [Example A4, (S)-1-(((3-cyanopyridin-2-yl)oxy)methyl)-4-((1R,3aS,5aR,5bR,7aR,11aS,11bR,13aR,13bR)-3a-((2-((1r,4S)-1-hydroxy-4-(methylsulfonyl)cyclohexyl)ethyl)amino)-5a,5b,8,8,11a-pentamethyl-1-(prop-1-en-2-yl)-2,3,3a,4,5,5a,5b,6,7,7a,8,11,11a,11b,12,13,13a,13b-octadecahydro-1H-cyclopenta[a]chrysen-9-yl)cyclohex-3-enecarboxylic acid] | 4 nM | 26 nM | 6 nM | 6 nM |  |  |  | 
4 | C=C(C)[C@@H]1CC[C@]2(NCC[C@]3(O)CC[C@@H](S(C)(=O)=O)CC3)CC[C@]3(C)[C@H](CC[C@@H]4[C@@]5(C)CC=C(C6=CC[C@](COc7ncccc7C#N)(C(=O)O)CC6)C(C)(C)[C@@H]5CC[C@]43C)[C@@H]12 [Example A5, (R)-1-(((3-cyanopyridin-2-yl)oxy)methyl)-4-((1R,3aS,5aR,5bR,7aR,11aS,11bR,13aR,13bR)-3a-((2-((1s,4R)-1-hydroxy-4-(methylsulfonyl)cyclohexyl)ethyl)amino)-5a,5b,8,8,11a-pentamethyl-1-(prop-1-en-2-yl)-2,3,3a,4,5,5a,5b,6,7,7a,8,11,11a,11b,12,13,13a,13b-octadecahydro-1H-cyclopenta[a]chrysen-9-yl)cyclohex-3-enecarboxylic acid] | 2 nM | 6 nM | 3 nM | 3 nM |  |  |  | 
5 | C=C(C)[C@@H]1CC[C@]2(NCC[C@]3(O)CC[C@H](S(C)(=O)=O)CC3)CC[C@]3(C)[C@H](CC[C@@H]4[C@@]5(C)CC=C(C6=CC[C@](COc7ncccc7C#N)(C(=O)O)CC6)C(C)(C)[C@@H]5CC[C@]43C)[C@@H]12 [Example A6, (R)-1-(((3-cyanopyridin-2-yl)oxy)methyl)-4-((1R,3aS,5aR,5bR,7aR,11aS,11bR,13aR,13bR)-3a-((2-((1r,4S)-1-hydroxy-4-(methylsulfonyl)cyclohexyl)ethyl)amino)-5a,5b,8,8,11a-pentamethyl-1-(prop-1-en-2-yl)-2,3,3a,4,5,5a,5b,6,7,7a,8,11,11a,11b,12,13,13a,13b-octadecahydro-1H-cyclopenta[a]chrysen-9-yl)cyclohex-3-enecarboxylic acid] | 2 nM | 5 nM | 8 nM | 8 nM |  |  |  | 
6 | C=C(C)[C@@H]1CC[C@]2(NC[C@@H](O)CO)CC[C@]3(C)[C@H](CC[C@@H]4[C@@]5(C)CC=C(C6=CC[C@](COc7ncccc7C#N)(C(=O)O)CC6)C(C)(C)[C@@H]5CC[C@]43C)[C@@H]12 [Example A7, (R)-1-(((3-cyanopyridin-2-yl)oxy)methyl)-4-((1R,3aS,5aR,5bR,7aR,11aS,11bR,13aR,13bR)-3a-(((R)-2,3-dihydroxypropyl)amino)-5a,5b,8,8,11a-pentamethyl-1-(prop-1-en-2-yl)-2,3,3a,4,5,5a,5b,6,7,7a,8,11,11a,11b,12,13,13a,13b-octadecahydro-1H-cyclopenta[a]chrysen-9-yl)cyclohex-3-enecarboxylic acid] | 3 nM | 477 nM | 5 nM | 5 nM |  |  |  | 
7 | C=C(C)[C@@H]1CC[C@]2(NC[C@@H](O)CO)CC[C@]3(C)[C@H](CC[C@@H]4[C@@]5(C)CC=C(C6=CC[C@](COc7ncccc7C(N)=O)(C(=O)O)CC6)C(C)(C)[C@@H]5CC[C@]43C)[C@@H]12 [Example A8, (R)-1-(((3-carbamoylpyridin-2-yl)oxy)methyl)-4-((1R,3aS,5aR,5bR,7aR,11aS,11bR,13aR,13bR)-3a-(((R)-2,3-dihydroxypropyl)amino)-5a,5b,8,8,11a-pentamethyl-1-(prop-1-en-2-yl)-2,3,3a,4,5,5a,5b,6,7,7a,8,11,11a,11b,12,13,13a,13b-octadecahydro-1H-cyclopenta[a]chrysen-9-yl)cyclohex-3-enecarboxylic acid] | 4 nM | 176 nM | 23 nM | 23 nM |  |  |  | 
8 | C=C(C)[C@@H]1CC[C@]2(NC[C@@H](O)COC)CC[C@]3(C)[C@H](CC[C@@H]4[C@@]5(C)CC=C(C6=CC[C@](COc7ncccc7C#N)(C(=O)O)CC6)C(C)(C)[C@@H]5CC[C@]43C)[C@@H]12 [Example A9, (R)-1-(((3-cyanopyridin-2-yl)oxy)methyl)-4-((1R,3aS,5aR,5bR,7aR,11aS,11bR,13aR,13bR)-3a-(((R)-2-hydroxy-3-methoxypropyl)amino)-5a,5b,8,8,11a-pentamethyl-1-(prop-1-en-2-yl)-2,3,3a,4,5,5a,5b,6,7,7a,8,11,11a,11b,12,13,13a,13b-octadecahydro-1H-cyclopentalalchrysen-9-yl)cyclohex-3-enecarboxylic acid] | 3 nM | 300 nM | 12 nM | 12 nM |  |  |  | 
9 | C=C(C)[C@@H]1CC[C@]2(NC[C@H](O)COC)CC[C@]3(C)[C@H](CC[C@@H]4[C@@]5(C)CC=C(C6=CC[C@](COc7ncccc7C#N)(C(=O)O)CC6)C(C)(C)[C@@H]5CC[C@]43C)[C@@H]12 [Example A11, (R)-1-(((3-cyanopyridin-2-yl)oxy)methyl)-4-((1R,3aS,5aR,5bR,7aR,11aS,11bR,13aR,13bR)-3a-(((S)-2-hydroxy-3-methoxypropyl)amino)-5a,5b,8,8,11a-pentamethyl-1-(prop-1-en-2-yl)-2,3,3a,4,5,5a,5b,6,7,7a,8,11,11a,11b,12,13,13a,13b-octadecahydro-1H-cyclopentalalchrysen-9-yl)cyclohex-3-enecarboxylic acid] | 11 nM | 281 nM | 17 nM | 17 nM |  |  |  | 
10 | C=C(C)[C@@H]1CC[C@]2(NC[C@H](O)COC)CC[C@]3(C)[C@H](CC[C@@H]4[C@@]5(C)CC=C(C6=CC[C@](COc7ncccc7C(N)=O)(C(=O)O)CC6)C(C)(C)[C@@H]5CC[C@]43C)[C@@H]12 [Example A12, (R)-1-(((3-carbamoylpyridin-2-yl)oxy)methyl)-4-((1R,3aS,5aR,5bR,7aR,11aS,11bR,13aR,13bR)-3a-(((S)-2-hydroxy-3-methoxypropyl)amino)-5a,5b,8,8,11a-pentamethyl-1-(prop-1-en-2-yl)-2,3,3a,4,5,5a,5b,6,7,7a,8,11,11a,11b,12,13,13a,13b-octadecahydro-1H-cyclopenta[a]chrysen-9-yl)cyclohex-3-enecarboxylic acid] | 2 nM | 69 nM | 59 nM | 59 nM |  |  |  | 
